According to ChEMBL document CHEMBL1158420, “Synthesis, spectral, crystal and antimicrobial studies of biologically potent oxime ethers of nitrogen, oxygen and sulfur heterocycles” (2009):
Converted amounts (≈) assume the structure as drawn.

How the values were obtained:
Aspergillus niger = assay: Antifungal activity against Aspergillus niger by twofold dilution method; assay type: functional; details: Aspergillus niger; read-out: MIC
Aspergillus flavus = assay: Antifungal activity against Aspergillus flavus by twofold dilution method; assay type: functional; details: Aspergillus flavus; read-out: MIC
Candida albicans = assay: Antifungal activity against Candida albicans by twofold dilution method; assay type: functional; details: Candida albicans; read-out: MIC
Escherichia coli = assay: Antibacterial activity against Escherichia coli by twofold dilution method; assay type: functional; details: Escherichia coli; read-out: MIC
Candida = assay: Antifungal activity against Candida 51 by twofold dilution method; assay type: functional; details: Candida, 51; read-out: MIC
Staphylococcus aureus [1] = assay: Antibacterial activity against Staphylococcus aureus by twofold dilution method; assay type: functional; details: Staphylococcus aureus; read-out: MIC
[2] = system: Salmonella enterica subsp. enterica; assay: Antibacterial activity against Salmonella typhi by twofold dilution method; assay type: functional, Salmonella enterica subsp. enterica serovar Typhi; details: Salmonella enterica; read-out: MIC
Pseudomonas aeruginosa = assay: Antibacterial activity against Pseudomonas aeruginosa by twofold dilution method; assay type: functional; details: Pseudomonas aeruginosa; read-out: MIC
Cryptococcus neoformans = assay: Antifungal activity against Cryptococcus neoformans by twofold dilution method; assay type: functional; details: Cryptococcus neoformans; read-out: MIC
Rhizopus = assay: Antifungal activity against Rhizopus sp. by twofold dilution method; assay type: functional; details: Rhizopus; read-out: MIC
[3] = system: Salmonella enterica subsp. enterica; assay: Ratio of MIC for drug to MIC for Ciprofloxacin against Salmonella typhi; assay type: functional, Salmonella enterica subsp. enterica serovar Typhi
Staphylococcus aureus [4] = assay: Ratio of MIC for drug to MIC for Ciprofloxacin against Staphylococcus aureus; assay type: functional

| SMILES | MIC (Aspergillus niger) | MIC (Aspergillus flavus) | MIC (Candida albicans) | MIC (Escherichia coli) | MIC (Candida) | MIC (Staphylococcus aureus [1]) | MIC [2] | MIC (Pseudomonas aeruginosa) | MIC (Cryptococcus neoformans) | MIC (Rhizopus) | Ratio [3] | Ratio (Staphylococcus aureus [4]) |
| --- | --- | --- | --- | --- | --- | --- | --- | --- | --- | --- | --- | --- |
| CC1/C(=N/OCc2ccccc2)CC(c2ccc(Cl)cc2)NC1c1ccc(Cl)cc1 (configuration not stated) | 50 µg/mL (≈ 114 µM) | 50 µg/mL (≈ 114 µM) | 25 µg/mL (≈ 56.9 µM) | 50 µg/mL (≈ 114 µM) | 50 µg/mL (≈ 114 µM) | 50 µg/mL (≈ 114 µM) | 50 µg/mL (≈ 114 µM) | 25 µg/mL (≈ 56.9 µM) | 50 µg/mL (≈ 114 µM) | 100 µg/mL (≈ 228 µM) |  |  |
| COc1ccc(C2C/C(=N\OCc3ccccc3)C(C)C(c3ccc(OC)cc3)N2)cc1 (configuration not stated) | 50 µg/mL (≈ 116 µM) | 50 µg/mL (≈ 116 µM) | 25 µg/mL (≈ 58.1 µM) | 50 µg/mL (≈ 116 µM) | 12.5 µg/mL (≈ 29 µM) | 25 µg/mL (≈ 58.1 µM) | 25 µg/mL (≈ 58.1 µM) | 50 µg/mL (≈ 116 µM) | 25 µg/mL (≈ 58.1 µM) | 25 µg/mL (≈ 58.1 µM) |  |  |
| CCC1/C(=N/OCc2ccccc2)CC(c2ccccc2)NC1c1ccccc1 (configuration not stated) | 50 µg/mL (≈ 130 µM) | > 200 µg/mL | 100 µg/mL (≈ 260 µM) | 100 µg/mL (≈ 260 µM) | 100 µg/mL (≈ 260 µM) | 25 µg/mL (≈ 65 µM) | 50 µg/mL (≈ 130 µM) | 100 µg/mL (≈ 260 µM) | 200 µg/mL (≈ 520 µM) | 50 µg/mL (≈ 130 µM) |  |  |
| c1ccc(CON=C2CC(c3ccccc3)NC(c3ccccc3)C2)cc1 (configuration not stated) | > 200 µg/mL | 200 µg/mL (≈ 561 µM) | 200 µg/mL (≈ 561 µM) | > 200 µg/mL | 200 µg/mL (≈ 561 µM) | > 200 µg/mL | 100 µg/mL (≈ 281 µM) | 200 µg/mL (≈ 561 µM) | > 200 µg/mL | > 200 µg/mL |  |  |
| Cc1ccc([C@@H]2C/C(=N/OCc3ccccc3)C[C@H](c3ccc(C)cc3)S2)cc1 | 50 µg/mL (≈ 125 µM) | 100 µg/mL (≈ 249 µM) | 100 µg/mL (≈ 249 µM) | 50 µg/mL (≈ 125 µM) | 100 µg/mL (≈ 249 µM) | 12.5 µg/mL (≈ 31.1 µM) | 25 µg/mL (≈ 62.3 µM) | 25 µg/mL (≈ 62.3 µM) | 200 µg/mL (≈ 498 µM) | 50 µg/mL (≈ 125 µM) | 2 | 2 |
| CC1/C(=N/OCc2ccccc2)CC(c2ccccc2)NC1c1ccccc1 (configuration not stated) | 200 µg/mL (≈ 540 µM) | 100 µg/mL (≈ 270 µM) | 100 µg/mL (≈ 270 µM) | 200 µg/mL (≈ 540 µM) | 200 µg/mL (≈ 540 µM) | 200 µg/mL (≈ 540 µM) | 100 µg/mL (≈ 270 µM) | 200 µg/mL (≈ 540 µM) | > 200 µg/mL | 200 µg/mL (≈ 540 µM) |  |  |
| Clc1ccc(C2CC(=NOCc3ccccc3)CC(c3ccc(Cl)cc3)N2)cc1 (configuration not stated) | 50 µg/mL (≈ 118 µM) | 200 µg/mL (≈ 470 µM) | 50 µg/mL (≈ 118 µM) | 50 µg/mL (≈ 118 µM) | 200 µg/mL (≈ 470 µM) | 50 µg/mL (≈ 118 µM) | 100 µg/mL (≈ 235 µM) | 50 µg/mL (≈ 118 µM) | 100 µg/mL (≈ 235 µM) | > 200 µg/mL |  |  |
| COc1ccc(C2NC(c3ccc(OC)cc3)C(C)C(=NOCc3ccccc3)C2C)cc1 (configuration not stated) | 25 µg/mL (≈ 56.2 µM) | 100 µg/mL (≈ 225 µM) | 12.5 µg/mL (≈ 28.1 µM) | 25 µg/mL (≈ 56.2 µM) | 6.25 µg/mL (≈ 14.1 µM) | 25 µg/mL (≈ 56.2 µM) | 25 µg/mL (≈ 56.2 µM) | 50 µg/mL (≈ 112 µM) | 12.5 µg/mL (≈ 28.1 µM) | 25 µg/mL (≈ 56.2 µM) |  |  |
| CCC1/C(=N\OCc2ccccc2)CC(c2ccccc2)OC1c1ccccc1 (configuration not stated) | 200 µg/mL (≈ 519 µM) | 100 µg/mL (≈ 259 µM) | 100 µg/mL (≈ 259 µM) | 50 µg/mL (≈ 130 µM) | 100 µg/mL (≈ 259 µM) | 200 µg/mL (≈ 519 µM) | 100 µg/mL (≈ 259 µM) | 100 µg/mL (≈ 259 µM) | 50 µg/mL (≈ 130 µM) | 100 µg/mL (≈ 259 µM) |  |  |
| Cc1ccc(C2C/C(=N\OCc3ccccc3)C(C)C(c3ccc(C)cc3)N2)cc1 (configuration not stated) | 100 µg/mL (≈ 251 µM) | 100 µg/mL (≈ 251 µM) | 50 µg/mL (≈ 125 µM) | 100 µg/mL (≈ 251 µM) | 50 µg/mL (≈ 125 µM) | 50 µg/mL (≈ 125 µM) | 100 µg/mL (≈ 251 µM) | 50 µg/mL (≈ 125 µM) | 100 µg/mL (≈ 251 µM) | 25 µg/mL (≈ 62.7 µM) |  |  |
| COc1ccc(C2OC(c3ccc(OC)cc3)C(C)C(=NOCc3ccccc3)C2C)cc1 (configuration not stated) | 50 µg/mL (≈ 112 µM) | 100 µg/mL (≈ 224 µM) | 50 µg/mL (≈ 112 µM) | 25 µg/mL (≈ 56.1 µM) | 12.5 µg/mL (≈ 28.1 µM) | 50 µg/mL (≈ 112 µM) | 50 µg/mL (≈ 112 µM) | 25 µg/mL (≈ 56.1 µM) | 6.25 µg/mL (≈ 14 µM) | 25 µg/mL (≈ 56.1 µM) |  |  |
| CCOC(=O)C1/C(=N/OCc2ccccc2)CC(c2ccccc2)NC1c1ccccc1 (configuration not stated) | 200 µg/mL (≈ 467 µM) | 100 µg/mL (≈ 233 µM) | 50 µg/mL (≈ 117 µM) | 100 µg/mL (≈ 233 µM) | 100 µg/mL (≈ 233 µM) | 200 µg/mL (≈ 467 µM) | 200 µg/mL (≈ 467 µM) | 50 µg/mL (≈ 117 µM) | 100 µg/mL (≈ 233 µM) | 200 µg/mL (≈ 467 µM) |  |  |
| CC(C)C1/C(=N/OCc2ccccc2)CC(c2ccccc2)NC1c1ccccc1 (configuration not stated) | 200 µg/mL (≈ 502 µM) | 200 µg/mL (≈ 502 µM) | 50 µg/mL (≈ 125 µM) | 100 µg/mL (≈ 251 µM) | 200 µg/mL (≈ 502 µM) | > 200 µg/mL | 100 µg/mL (≈ 251 µM) | 200 µg/mL (≈ 502 µM) | 100 µg/mL (≈ 251 µM) | 50 µg/mL (≈ 125 µM) |  |  |
| COc1ccc([C@@H]2CC(=NOCc3ccccc3)C[C@@H](c3ccc(OC)cc3)S2)cc1 | 25 µg/mL (≈ 57.7 µM) | 25 µg/mL (≈ 57.7 µM) | 25 µg/mL (≈ 57.7 µM) | 50 µg/mL (≈ 115 µM) | 25 µg/mL (≈ 57.7 µM) | 50 µg/mL (≈ 115 µM) | 50 µg/mL (≈ 115 µM) | 25 µg/mL (≈ 57.7 µM) | 12.5 µg/mL (≈ 28.8 µM) | 50 µg/mL (≈ 115 µM) |  |  |
